Legend:
Keratinocyte = assay: In vitro biological evaluation was determined on Keratinocytes, results expressed as percentage activity at 50% dose response; format: functional, Homo sapiens
MCF7 = assay: In vitro biological evaluation was determined on MCF-7 cell line, results expressed as percentage activity at 50% dose response; format: functional, Homo sapiens
MG-63 = assay: In vitro biological evaluation was determined on MG-63 cell line, results expressed as percentage activity at 50% dose response; format: functional, Homo sapiens
HL-60 [1] = assay: In vitro biological evaluation was determined on HL60 cell line, results expressed as percentage activity at 50% dose response; format: functional, Homo sapiens
Mus musculus = assay: In vivo calcemic effects was tested in vitamin D-replete normal NMRI mice by daily intraperitoneal injections of 1-alpha,25(OH)2D3; format: functional
[2] = molecular target: T1, Vitamin D3 receptor (Sus scrofa domesticus) (UniProt Q7M3G7); assay: The affinity to the pig intestinal mucosa vitamin D receptor was evaluated in vitro, results expressed as percentage activity at 50% dose response; format: tissue-based
T1 sequence (whole entry): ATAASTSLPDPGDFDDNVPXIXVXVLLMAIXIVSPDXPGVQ

HL-60 [3] = assay: In vitro biological evaluation was determined on HL60, results expressed as percentage activity at 50% dose response; format: functional, Homo sapiens

Compound | Activity [2] [%] | Activity (Keratinocyte) [%] | Activity (MCF7) [%] | Activity (MG-63) [%] | Activity (HL-60 [1]) [%] | Activity (Mus musculus) [%] | Activity (HL-60 [3]) [%]
C=C1C(=CC=C[C@@H]2CC[C@](C)(/C=C\CC(F)(F)C(C)(C)O)C2(C)C)C[C@@H](O)C[C@@H]1O | 40 | 200 | 70 | 12 | 20 | <0.1 | 
C=C1C(=CC=C[C@@H]2CC[C@](C)(CCCCC(O)(CC)CC)C2(C)C)C[C@@H](O)C[C@@H]1O | 80 | 90 | 250 | 200 | 100 | 5 | 
C=C1/C(=C\C=C\[C@@H]2CC[C@](C)(CCC#CC(C)(C)O)C2(C)C)C[C@@H](O)C[C@@H]1O | 9 | 400 | 150 | 50 | 100 | 0.1 | 
C=C1/C(=C\C=C2/CCC[C@]3(C)[C@@H]([C@H](C)CCCC(C)(C)O)CC[C@@H]23)C[C@@H](O)C[C@@H]1O [CALCITRIOL] | 100 | 100 | 100 | 100 | 100 | 100 | 
C=C1C(=CC=C[C@@H]2CC[C@](C)(/C=C\CCC(O)(C(F)(F)F)C(F)(F)F)C2(C)C)C[C@@H](O)C[C@@H]1O | 80 | 300 | 375 | 50 | 50 | 13 | 
C=C1C(=CC=C[C@@H]2CC[C@](C)(CCCCC(C)(C)O)C2(C)C)C[C@@H](O)C[C@@H]1O | 30 | 40 | 80 | 60 | 40 | <1 | 
C=C1C(=CC=C[C@@H]2CC[C@](C)(CCCC(F)(F)C(C)(C)O)C2(C)C)C[C@@H](O)C[C@@H]1O | 75 | 1350 | 90 | 50 | 80 | 3 | 

Further lines, with some results ahead:

Activity [2] [%] | Compound | Activity (Keratinocyte) [%] | Activity (MCF7) [%] | Activity (MG-63) [%] | Activity (HL-60 [1]) [%] | Activity (Mus musculus) [%] | Activity (HL-60 [3]) [%]
75 | CCC(O)(CC)CCCC[C@@]1(C)CC[C@@H](/C=C/C=C2C[C@@H](O)C[C@H](O)C2)C1(C)C | 40 | 100 | 80 | 85 | 0.25 | 
40 | CC(C)(O)CCCC[C@@]1(C)CC[C@@H](/C=C/C=C2C[C@@H](O)C[C@H](O)C2)C1(C)C | 10 | 30 | 40 | 9 | 0.25 | 
100 | CC1(C)[C@H](/C=C/C=C2C[C@@H](O)C[C@H](O)C2)CC[C@]1(C)CCC#CC(O)(C(F)(F)F)C(F)(F)F | 4500 | 2000 |  |  | 1 | 300
60 | CC(C)(O)C#CCC[C@@]1(C)CC[C@@H](/C=C/C=C2C[C@@H](O)C[C@H](O)C2)C1(C)C | 85 | 70 |  | 60 | 0.25 | 
80 | C=C1C(=CC=C[C@@H]2CC[C@](C)(CCCCC(O)(C(F)(F)F)C(F)(F)F)C2(C)C)C[C@@H](O)C[C@@H]1O | 750 | 1250 | 200 | 150 | 10 | 
70 | CC(C)(O)C(F)(F)C/C=C\[C@@]1(C)CC[C@@H](/C=C/C=C2C[C@@H](O)C[C@H](O)C2)C1(C)C | 60 | 10 |  | 20 | 0.5 | 

From ChEMBL document CHEMBL1135150, “Vitamin D(3): synthesis of seco C-9,11,21-trisnor-17-methyl-1 alpha, 25-dihydroxyvitamin D(3) analogues” (2002)
